In patent US6211215A, “Heterocyclic compounds, their production and use” (Takeda Chemical Industries, Ltd., priority 1996, dated 2001):

Experiments:
[1] = tested on: human epidermal carcinoma cell line A431; conditions: Journal of Antibiotics, Vol.39, p.170, 1986; cited from earlier work
MDA-MB-453 [2] = assay: In vitro inhibition of cell proliferation (2); format: cell-based; conditions: Homo sapiens, 72 h; Breast cancer MDA-MB-453; 3 days; SRB
Procedure: (§1) 100 μl (containing 2,000 cells) of a cell suspension of human breast cancer cell line MDA-MB-453 was seeded in each well of the 96-well microtiter plates. The cultures were incubated at 37° C. in a 5% carbon dioxide gas incubator. On the next day, 100 μl of the 2-fold serial dilution of each compound solution was added to each well and the mixtures were cultured for 3 days. The solution containing the compound was removed and the cells were washed with water. To the cells was added a 0.4% (W/V) dye SRB (dissolved in 1% acetic acid) solution to fix and stain the cell protein (Skehan P. et al., Journal of the National Cancer Institute Vol.82, pp.1107-1112, 1990). The dye solution was removed and the fixed and stained cell protein was washed. The protein-bound dye was extracted with 200 μl of 10 mM Tris buffer. The optical density of the extracted dye was determined at the wavelength of 540 nm to estimate the quantity of the cells in terms of the protein quantity. Designating the protein quantity in the control to which no compound solution was added as 100%, the proportion of the residual protein quantity in each treated group was calculated, and IC50, which was concentration of the compound required to inhibit the residual protein quantity to 50% the quantity of the control, was calculated.

LNCaP = assay: Selective in vitro inhibition of breast cancer and prostate cancer cell growth; format: cell-based; conditions: Homo sapiens, 72 h; Prostate cancer LNCaP; 3 days; SRB; read-out: IC50, inhibition of cell proliferation
Procedure: (§2) 100 μl (containing 2,000 cells) of a cell suspension of various human cancer cell lines shown in [Table 7] was seeded in each well of the 96-well microtiter plates. The cells were incubated at 37° C. in a 5% carbon dioxide gas incubator. Next day, 100 μl of a 2 fold serial dilution of a compound solution was added to each well. The cultures were incubated for 3 days. The solution containing the compound was removed and the cells were washed with water. To the cells was added a 0.4% (V/W) dye SRB (dissolved in 1% acetic acid) solution to fix and stain the cell protein. The dye solution was removed and the fixed and stained cell protein was washed. The protein-bound dye was extracted with 200 μl of 10 mM Tris buffer. The optical density of the extracted dye was determined at the wavelength of 540 nm to estimate the quantity of the cells in terms of the protein quantity. Designating the protein quantity in the control to which no compound solution was added as 100%, the proportion of the residual protein quantity in each treated group was calculated, and IC50, which was the concentration of the compound required to inhibit the residual protein quantity to 50% the quantity of the control, was calculated.

MCF-7 = assay: as above; format: cell-based; conditions: Homo sapiens, MCF7, 72 h; Breast cancer MCF-7; 3 days; SRB; read-out: IC50, inhibition of cell proliferation
Procedure: as §2

MDA-MB-453 [3] = assay: as above; format: cell-based; conditions: Homo sapiens, 72 h; Breast cancer MDA-MB-453; 3 days; SRB; read-out: IC50, inhibition of cell proliferation
Procedure: as §2

MRC5 = assay: as above; format: cell-based; conditions: Homo sapiens, 72 h; Normal MRC5; 3 days; SRB; read-out: IC50, inhibition of cell proliferation
Procedure: as §2

PC3 = assay: as above; format: cell-based; conditions: Homo sapiens, PC-3, 72 h; Prostate cancer PC3; 3 days; SRB; read-out: IC50, inhibition of cell proliferation
Procedure: as §2

HER2 [4] = biological target: T1, HER2 (Homo sapiens, UniProt P04626); assay: Inhibition of phosphorylation of receptor tyrosine in human breast cancer cells (2), MCF-7, heregulin-stimulated; format: cell-based; parameters: Human breast cancer cell line MCF-7 was used; endogenous in cells; host or cells: MCF-7; conditions: heregulin control = 100%, read-out: Phosphorylation of receptor tyrosine residue (%); for activity at 0.4 µM: MCF7, 0.4 μM; for activity at 1.6 µM: MCF7, 1.6 μM; for activity at 6.3 µM: MCF7, 6.3 μM; for activity at 25 µM: MCF7, 25 μM
Procedure: Human breast cancer cell line MCF-7 was used. 1,000 μl of the cell suspension (250,000 cells) was seeded in each well of the 24-well plates. The culture were incubated at 37° C. in a 5% carbon dioxide gas incubator. On the next day, 100 μl of the 10-fold serial dilution of each compound solution was added to each well and, 2 hours later, 0.5 μg/ml of heregulin was added to it. After 5 minutes the extract solution was added to it to terminate the reaction, and the protein fraction was extracted. The protein was fractionated by the protein electrophoresis. The protein in the electrophoretic gel was transferred to a nylon filter. The filter was allowed to react with the phosphorylated tyrosine-specific antibody. The reaction product was fluorescence-labeled to expose a photofilm. The intensity of the exposure on the photofilm was quantitated by an image-analyzing apparatus. The proportion of the phosphorylation of HER2 tyrosine in the cells added with a compound solution of each concentration was calculated designating the phosphorylation of HER2 tyrosine in the heregulin-added cells as 100%.
Target sequence in this assay (P04626 23-1255): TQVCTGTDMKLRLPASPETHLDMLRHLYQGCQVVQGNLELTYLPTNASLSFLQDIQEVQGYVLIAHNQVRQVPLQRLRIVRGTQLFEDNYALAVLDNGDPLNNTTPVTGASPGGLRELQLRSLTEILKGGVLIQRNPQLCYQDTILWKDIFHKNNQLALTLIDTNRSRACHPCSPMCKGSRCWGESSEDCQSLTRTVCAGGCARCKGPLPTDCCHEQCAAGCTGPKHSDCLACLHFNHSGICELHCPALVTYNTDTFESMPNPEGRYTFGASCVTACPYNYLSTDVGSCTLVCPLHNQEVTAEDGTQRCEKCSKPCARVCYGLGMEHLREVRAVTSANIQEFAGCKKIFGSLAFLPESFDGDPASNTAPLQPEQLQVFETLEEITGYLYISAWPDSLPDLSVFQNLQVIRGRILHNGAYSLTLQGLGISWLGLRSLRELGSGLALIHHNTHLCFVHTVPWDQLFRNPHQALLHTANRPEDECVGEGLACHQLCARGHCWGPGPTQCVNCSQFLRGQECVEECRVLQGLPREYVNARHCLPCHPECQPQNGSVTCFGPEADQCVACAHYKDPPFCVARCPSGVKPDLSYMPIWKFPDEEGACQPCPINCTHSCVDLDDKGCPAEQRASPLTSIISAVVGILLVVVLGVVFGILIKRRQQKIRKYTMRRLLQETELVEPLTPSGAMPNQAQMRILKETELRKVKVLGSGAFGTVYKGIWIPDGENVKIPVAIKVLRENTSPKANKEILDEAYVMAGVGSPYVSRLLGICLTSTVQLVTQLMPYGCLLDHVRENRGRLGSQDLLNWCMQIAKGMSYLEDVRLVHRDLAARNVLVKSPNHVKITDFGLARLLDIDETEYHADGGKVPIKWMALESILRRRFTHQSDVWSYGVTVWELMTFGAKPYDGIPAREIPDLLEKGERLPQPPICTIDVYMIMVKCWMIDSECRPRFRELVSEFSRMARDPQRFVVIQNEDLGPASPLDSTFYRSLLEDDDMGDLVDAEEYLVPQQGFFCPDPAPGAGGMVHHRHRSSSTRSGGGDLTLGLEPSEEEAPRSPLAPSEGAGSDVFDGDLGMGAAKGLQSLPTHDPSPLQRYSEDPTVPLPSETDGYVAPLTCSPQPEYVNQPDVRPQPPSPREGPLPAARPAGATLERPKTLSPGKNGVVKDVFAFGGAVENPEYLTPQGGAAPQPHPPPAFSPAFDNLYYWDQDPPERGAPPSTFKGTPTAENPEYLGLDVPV

MDA-MB-453 [5] = assay: In vitro inhibition of cell proliferation (1); format: cell-based; conditions: Homo sapiens, 72 h; Breast cancer MDA-MB-453; 3 days; SRB
Procedure: as §1

HER2 [6] = biological target: T1, HER2; assay: Inhibition of the activity of human growth factor receptor (HER2) tyrosine kinase; format: biochemical; parameters: the tyrosine kinase domain of the human HER2 gene was cloned; made in house; host or cells: insect cell line SF-21 (recombinant insect virus vector); conditions: HER2 receptor type tyrosine kinase; ELISA with HER3 substrate; read-out: Concentration of inhibiting HER2 (IC50)
Excerpt: As enzyme standard, the tyrosine kinase domain of the human HER2 gene was cloned to prepare the recombinant gene of insect virus vector, with which the insect cell line SF-21 was infected to produce an enzyme protein (Guy P. M. et al., Journal of Biological Chemistry Vol. 267, pp.13851-13856, 1992). As substrate, the phosphorylated tyrosine domain of the HER3 protein was cloned to prepare the recombinant gene of plasmid vector with which Escherichia Coli strain JM109 was infected to give an enzyme protein (Sierke S. L. et al., Biochemistry Vol. 32, pp.10102-10108, 1993). The enzymatic reaction was performed by the enzyme-linked immunological method which consisted of fixing the substrate protein in wells of a 96-well microtiter plate, adding the enzyme into the wells and quantitating phosphorylated tyrosine, which was the reaction product, by use of the anti-phosphorylated tyrosine antibody (Cleaveland J. S. et al., Analytical Biochemistry Vol. 190, pp249-253, 1990).
Target sequence in this assay (P04626 720-987 limits assumed): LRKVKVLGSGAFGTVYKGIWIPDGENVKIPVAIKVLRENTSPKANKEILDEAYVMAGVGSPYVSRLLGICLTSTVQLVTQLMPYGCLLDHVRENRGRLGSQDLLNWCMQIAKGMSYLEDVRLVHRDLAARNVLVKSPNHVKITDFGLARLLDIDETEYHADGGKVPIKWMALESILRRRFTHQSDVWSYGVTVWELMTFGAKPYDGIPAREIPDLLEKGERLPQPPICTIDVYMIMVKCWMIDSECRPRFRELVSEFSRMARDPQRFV

[7] = tested on: human squamous cell carcinoma MH-85; conditions: Cancer Research, Vol.51, p.4430, 1991; cited from earlier work
T-47D = assay: Selective in vitro inhibition of breast cancer and prostate cancer cell growth; format: cell-based; conditions: Homo sapiens, T47D, 72 h; Breast cancer T-47D; 3 days; SRB; read-out: IC50, inhibition of cell proliferation
Procedure: as §2

[8] = tested on: human breast cancer cell line, MDA-MB-453; assay: In vivo mammary cancer inhibiting effect (2); parameters: species or system female Balb/C strain athymic nude mice; conditions: oral, gained tumor volume vs control
Procedure: 5,000,000 cells of human breast cancer cell line, MDA-MB-453, were suspended in a gelmatrix solution. The suspension was subcutaneously implanted at the breast in 7-week-old female Balb/C strain athymic nude mice (Friedman R. et al., Proceedings of the National Academy of Sciences of the U.S.A. Vol. 87, pp.6698-6702, 1990). Twelve days after the implantation, the diameters of tumors were determined. For the experiment were used 5 mice per group with similar tumor size. Compound 72 or 109 of the present invention was suspended in a 5% gum arabic solution (physiological saline) and administered orally twice daily in dose of 60 mg/kg or 90 mg/kg body weight for 10 days. On the day when the dosing was ended, the diameters of tumors were measured. Tumor volume was calculated by the following formula: volume of tumor=longest diameter×shortest diameter×shortest diameter×1/2. The growth rate of tumors was obtained as the proportion of the gained tumor volume which was substracted the initial volume from the final volume in the treated animals to the gained tumor volume which was substracted the initial volume from the final volume in the control animals. The body weights of mice administered with compounds of the present invention were measured during the experiment to observe no decrease.

[9] = tested on: human prostatic cancer cell line, LNCaP; assay: In vivo inhibition of prostate cancer (1); parameters: species or system male Balb/C-strain athymic nude mice; conditions: for Tumor growth rate (%): oral, gained tumor volume vs control; for Inhibition of implanted tumor growth: LNCaP, athymic nude mice
Procedure: 5,000,000 cells of human prostatic cancer cell line, LNCaP, were suspended in a gelmatrix solution and implanted subcutaneously at the breast in 8-week old male Balb/C-strain athymic nude mice (Friedman R. et al., Proceedings of the National Academy of Sciences of the U.S.A. Vol. 87, pp.6698-6702, 1990). 42 days (in the case of compound 72) or 57 days (in the case of compound 109) after the implantation, the diameters of tumors were measured. Five mice per group with similar tumor size were used for the experiment. Compounds 72 or 109 of the present invention was suspended in a 5% gum arabic solution (physiological saline) and administered orally twice daily in a dose of 60 mg/kg and 90 mg/kg body weight for 10 days. After the completion of the dosing, the diameters of tumor were measured. The tumor volume was calculated by the following formula: volume of tumor=longest diameter×shortest diameter×shortest diameter×1/2. The growth rate of tumors was obtained as the proportion of the gained tumor volume which was subtracted the initial volume from the final volume in the treated animals to the gained tumor volume which was subtracted the initial volume from the final volume in the control animals. The body weights of mice administered with compounds of the present invention were measured during the experiment to observe no decrease.

[10] = 120 mg/kg/day, 60 mg/kg twice daily for 10 days
[11] = 180 mg/kg/day, 90 mg/kg twice daily for 10 days

Row | Compound | Inhibition of proliferation [1] | IC50 (MDA-MB-453 [2]) [µM] | IC50 (LNCaP) [µM] | IC50 (MCF-7) [µM] | IC50 (MDA-MB-453 [3]) [µM] | IC50 (MRC5) [µM] | IC50 (PC3) [µM] | activity at 0.4 µM (HER2 [4]) [%] | activity at 1.6 µM (HER2 [4]) [%] | activity at 6.3 µM (HER2 [4]) [%] | activity at 25 µM (HER2 [4]) [%] | IC50 (MDA-MB-453 [5]) [µM] | IC50 (HER2 [6]) [µM] | Antitumor activity in vivo [7] | IC50 (T-47D) [µM] | Tumor growth rate (%) [8, 10] [%] | Tumor growth rate (%) [8, 11] [%] | Tumor growth rate (%) [9, 10] [%] | Tumor growth rate (%) [9, 11] [%] | Inhibition of implanted tumor growth [9]
1 | O=CN/C=C/c1cc(O)ccc1O [erbstatin] | inhibits proliferation of human epidermal carcinoma cell line A431 | – | – | – | – | – | – | – | – | – | – | – | – | – | – | – | – | – | – | –
2 | c1csc(-c2nc(COc3ccc(CCCn4ccnc4)cc3)cs2)c1 [Compound 94, 4-[4-[3-(1-imidazolyl)propyl]phenoxymethyl]-2-(2-thienyl)thiazole] | – | 4.8 | 5.6 | 1.1 | 4.8 | > 25 | 15 | 93 | 86 | 45 | 25 | – | – | – | – | – | – | – | – | –
3 | C(=C\c1nc(COc2ccc(CCCCn3cncn3)cc2)co1)/c1ccccc1 [Compound 2, 1-[4-[4-[2-[(E)-2-phenylethenyl]-4-oxazolylmethoxy]phenyl]butyl]-1,2,4-triazole] | – | – | – | – | – | – | – | – | – | – | – | 0.66 | 67 | – | – | – | – | – | – | –
4 | COc1cc2ncnc(Nc3cccc(Cl)c3)c2cc1OC [tyrphostin] | – | – | – | – | – | – | – | – | – | – | – | – | – | has antitumor activity | – | – | – | – | – | –
5 | c1csc(-c2nc(COc3ccc(CCCn4ccnc4)cc3)co2)c1 [Compound 72, 4-[4-[3-(1-imidazolyl)propyl]phenoxymethyl]-2-(2-thienyl)oxazole] | – | 1.7 | 7.9 | 0.62 | 1.7 | > 25 | 9.5 | 96 | 48 | 19 | 7 | – | – | – | 3.5 | 84 | 71 | 91 | 57 | inhibiting tumor growth of hormone dependent prostate cancer LNCaP
6 | c1csc(-c2nc3cc(COc4ccc(CCCCn5ccnc5)cc4)ccc3o2)c1 [Compound 80, 5-[4-[4-(1-imidazolyl)butyl]phenoxymethyl]-2-(2-thienyl)benzoxazole] | – | 0.09 | 1.6 | 0.01 | 0.09 | > 25 | 6.5 | 46 | 40 | 34 | – | – | – | – | – | – | – | – | – | –
7 | Cc1ccc(-c2nc(COc3ccc(CCCn4ccnc4)cc3)co2)s1 [Compound 109, 4-[4-[3-(1-imidazolyl)propyl]phenoxymethyl]-2-(5-methyl-2-thienyl)oxazole] | – | 2.5 | 11 | 0.19 | 2.5 | > 25 | 16 | 92 | 89 | 43 | 31 | – | – | – | – | 35 | – | 28 | – | inhibiting tumor growth of hormone dependent prostate cancer LNCaP
